Columns and labels:
[1] = molecular target: T1, HiBit-BRM fusion protein (Homo sapiens, UniProt P51531); assay: HiBiT-BRM cell-based degradation assay (Nano-Glo HiBiT Lytic Detection, 24 h); details: HeLa cells expressing HiBiT-BRM; for DC50: read-out: BRM HiBit Degradation IC50; for BRM HiBit Degradation Maximum measured: top dose 30 μM
T1 construct: expressed in transfected cells
Summary of the method: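 Residual HiBiT-BRM in a stable HeLa line was measured by Nano-Glo lytic luminescence after 24 h compound exposure (top final dose 30 μM, 3-fold, 10 points, duplicate). Values are % degradation, scaled between DMSO-treated cells and cells given 2 μM of a known BRM/BRG1 degrader.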

[2] = molecular target: T2, HiBit-BRG1 fusion protein (Homo sapiens, UniProt P51532); assay: HiBiT-BRG1 cell-based degradation assay (Nano-Glo HiBiT Lytic Detection, 24 h); details: HeLa cells expressing HiBit-BRG1 and LgBit; for DC50: read-out: BRG1 HiBit Degradation IC50; for Dmax: HeLa, top dose 30 μM, read-out: BRG1 HiBit Degradation Maximum measured
T2 construct: expressed in transfected cells
Summary of the method: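 Degradation is scaled from DMSO-treated cells (0%) to cells given 2 μM of a known BRM/BRG1 degrader (100%). HeLa cells stably carrying HiBiT-BRG1 plus LgBiT (5000/well) were lysed with Nano-Glo HiBiT detection reagent, shaken 10 min at RT, and luminescence read.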

T2 sequence (P51532 whole entry, the tested form may be a part): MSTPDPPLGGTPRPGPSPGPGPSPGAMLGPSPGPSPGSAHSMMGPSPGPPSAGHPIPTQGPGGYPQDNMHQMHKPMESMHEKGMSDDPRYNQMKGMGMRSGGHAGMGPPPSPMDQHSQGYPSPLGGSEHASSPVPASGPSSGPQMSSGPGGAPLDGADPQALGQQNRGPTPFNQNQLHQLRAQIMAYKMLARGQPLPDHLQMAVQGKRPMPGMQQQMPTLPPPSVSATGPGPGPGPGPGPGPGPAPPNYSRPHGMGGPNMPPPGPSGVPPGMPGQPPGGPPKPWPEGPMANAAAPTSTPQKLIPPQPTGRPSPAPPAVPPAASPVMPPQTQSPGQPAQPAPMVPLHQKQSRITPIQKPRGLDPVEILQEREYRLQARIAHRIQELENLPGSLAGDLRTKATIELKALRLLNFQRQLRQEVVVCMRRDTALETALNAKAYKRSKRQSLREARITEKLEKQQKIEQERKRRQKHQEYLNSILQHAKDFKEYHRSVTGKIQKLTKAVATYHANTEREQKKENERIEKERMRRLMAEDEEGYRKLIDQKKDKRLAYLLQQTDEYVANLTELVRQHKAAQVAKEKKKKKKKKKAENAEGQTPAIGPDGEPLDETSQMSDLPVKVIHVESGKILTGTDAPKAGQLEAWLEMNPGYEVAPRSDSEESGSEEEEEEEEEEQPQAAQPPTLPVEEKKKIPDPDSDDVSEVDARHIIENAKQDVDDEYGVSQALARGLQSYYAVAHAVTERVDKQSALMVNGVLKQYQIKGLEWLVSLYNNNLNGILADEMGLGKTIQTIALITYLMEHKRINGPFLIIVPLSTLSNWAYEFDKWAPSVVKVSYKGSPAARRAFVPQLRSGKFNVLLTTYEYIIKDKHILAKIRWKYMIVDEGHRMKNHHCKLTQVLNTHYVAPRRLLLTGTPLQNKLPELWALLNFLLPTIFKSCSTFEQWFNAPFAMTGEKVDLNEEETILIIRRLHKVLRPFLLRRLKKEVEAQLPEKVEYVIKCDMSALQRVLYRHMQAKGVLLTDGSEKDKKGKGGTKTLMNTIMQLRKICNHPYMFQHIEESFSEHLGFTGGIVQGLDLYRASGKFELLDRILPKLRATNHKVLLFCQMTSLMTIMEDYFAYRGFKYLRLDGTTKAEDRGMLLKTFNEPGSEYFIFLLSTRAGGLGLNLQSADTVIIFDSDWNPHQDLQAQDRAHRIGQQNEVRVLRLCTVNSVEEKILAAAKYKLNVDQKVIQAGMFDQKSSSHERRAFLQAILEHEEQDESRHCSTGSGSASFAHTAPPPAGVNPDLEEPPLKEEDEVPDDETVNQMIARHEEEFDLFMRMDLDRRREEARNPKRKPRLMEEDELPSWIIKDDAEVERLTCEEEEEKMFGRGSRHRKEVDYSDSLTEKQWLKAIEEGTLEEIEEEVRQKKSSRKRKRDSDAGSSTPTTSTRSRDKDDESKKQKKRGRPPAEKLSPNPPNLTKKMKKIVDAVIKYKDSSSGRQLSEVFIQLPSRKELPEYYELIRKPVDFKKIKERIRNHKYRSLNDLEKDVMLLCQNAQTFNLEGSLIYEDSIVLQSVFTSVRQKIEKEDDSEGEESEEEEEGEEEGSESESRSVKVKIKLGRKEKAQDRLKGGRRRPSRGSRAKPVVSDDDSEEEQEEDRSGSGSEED
T1 sequence (P51531 whole entry, the tested form may be a part): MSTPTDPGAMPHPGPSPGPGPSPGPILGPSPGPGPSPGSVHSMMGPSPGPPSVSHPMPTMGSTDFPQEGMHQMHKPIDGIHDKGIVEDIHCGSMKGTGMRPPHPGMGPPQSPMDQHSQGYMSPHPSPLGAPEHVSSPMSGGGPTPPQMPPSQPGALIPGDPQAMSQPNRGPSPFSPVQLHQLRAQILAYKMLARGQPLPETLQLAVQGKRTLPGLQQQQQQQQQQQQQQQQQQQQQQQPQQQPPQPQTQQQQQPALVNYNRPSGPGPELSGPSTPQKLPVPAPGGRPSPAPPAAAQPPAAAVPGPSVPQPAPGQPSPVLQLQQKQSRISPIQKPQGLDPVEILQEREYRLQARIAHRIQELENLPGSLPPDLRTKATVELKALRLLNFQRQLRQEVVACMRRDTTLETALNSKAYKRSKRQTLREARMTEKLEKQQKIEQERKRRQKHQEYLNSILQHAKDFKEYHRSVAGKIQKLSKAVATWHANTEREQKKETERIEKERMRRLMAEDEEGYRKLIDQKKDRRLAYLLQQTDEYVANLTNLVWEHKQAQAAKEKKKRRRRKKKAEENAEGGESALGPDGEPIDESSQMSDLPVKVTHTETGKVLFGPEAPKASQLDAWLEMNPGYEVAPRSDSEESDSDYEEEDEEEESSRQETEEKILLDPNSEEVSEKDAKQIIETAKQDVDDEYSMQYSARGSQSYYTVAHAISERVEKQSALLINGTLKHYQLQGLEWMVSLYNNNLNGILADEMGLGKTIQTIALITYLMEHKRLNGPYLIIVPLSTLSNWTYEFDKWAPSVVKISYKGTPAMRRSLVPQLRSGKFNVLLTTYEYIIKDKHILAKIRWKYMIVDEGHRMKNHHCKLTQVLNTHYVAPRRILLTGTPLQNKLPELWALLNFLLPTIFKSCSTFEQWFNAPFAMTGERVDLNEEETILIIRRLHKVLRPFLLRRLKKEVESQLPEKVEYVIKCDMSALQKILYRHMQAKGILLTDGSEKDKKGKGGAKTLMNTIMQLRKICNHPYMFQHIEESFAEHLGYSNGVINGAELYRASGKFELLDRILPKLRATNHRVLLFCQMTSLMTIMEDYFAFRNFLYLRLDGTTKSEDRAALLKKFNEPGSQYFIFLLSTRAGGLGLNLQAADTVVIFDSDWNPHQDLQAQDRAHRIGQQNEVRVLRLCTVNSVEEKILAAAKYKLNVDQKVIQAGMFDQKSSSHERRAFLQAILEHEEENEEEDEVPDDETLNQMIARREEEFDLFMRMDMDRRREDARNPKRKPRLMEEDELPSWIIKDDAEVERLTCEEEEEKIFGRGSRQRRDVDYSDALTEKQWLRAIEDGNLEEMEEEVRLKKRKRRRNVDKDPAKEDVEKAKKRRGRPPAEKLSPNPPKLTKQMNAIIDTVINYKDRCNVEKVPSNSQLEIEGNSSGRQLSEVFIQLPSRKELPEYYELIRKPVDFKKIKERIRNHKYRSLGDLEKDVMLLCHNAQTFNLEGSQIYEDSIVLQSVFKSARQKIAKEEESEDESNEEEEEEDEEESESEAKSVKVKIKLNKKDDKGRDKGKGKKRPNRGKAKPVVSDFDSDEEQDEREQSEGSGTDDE

Row | Structure (SMILES) | DC50 [1] | BRM HiBit Degradation Maximum measured [1] | DC50 [2] | Dmax [2]
1 | CS(=O)(=O)n1ccc(C(=O)NCC(=O)Nc2nc(-c3cccc(-c4ccnc(OCCNC(=O)CCOCCOCCOc5ccc6c(c5)C(=O)N(C5CCC(=O)NC5=O)C6=O)c4)c3)cs2)c1 (centres unmarked) [Compound 38, N-(2-((4-(3-(2-(2-(3-(2-(2-((2-(2,6-dioxopiperidin-3-yl)-1,3-dioxoisoindolin-5-yl)oxy)ethoxy)ethoxy)propanamido)ethoxy)pyridin-4-yl)phenyl)thiazol-2-yl)amino)-2-oxoethyl)-1-(methylsulfonyl)-1H-pyrrole-3-carboxamide] | > 10000 nM | C (‘C’ = Maximum degradation <50%) | 100 to 1000 nM | > 75%
2 | CS(=O)(=O)n1ccc(C(=O)NCC(=O)Nc2nc(-c3cccc(-c4ccnc(N5CCN(C(=O)CCOCCOCCNc6ccc7c(c6)C(=O)N(C6CCC(=O)NC6=O)C7=O)CC5)c4)c3)cs2)c1 (centres unmarked) [Compound 40, N-(2-((4-(3-(2-(4-(3-(2-(2-((2-(2,6-dioxopiperidin-3-yl)-1,3-dioxoisoindolin-5-yl)amino)ethoxy)ethoxy)propanoyl)piperazin-1-yl)pyridin-4-yl)phenyl)thiazol-2-yl)amino)-2-oxoethyl)-1-(methylsulfonyl)-1H-pyrrole-3-carboxamide] | < 100 nM | A (‘A’ = Maximum degradation >75%) | < 100 nM | > 75%
3 | Cc1c(C(=O)NCC(=O)Nc2nc(-c3cccc(-c4ccnc(N(C)CC(=O)NCCCCCCCCNC(=O)COc5cccc6c5C(=O)N(C5CCC(=O)NC5=O)C6=O)c4)c3)cs2)cn(S(C)(=O)=O)c1C (centres unmarked) [Compound 41, N-[2-[[4-[3-[2-[[2-[8-[[2-[2-(2,6-dioxo-3-piperidyl)-1,3-dioxo-isoindolin-4-yl]oxyacetyl]amino]octylamino]-2-oxo-ethyl]-methyl-amino]-4-pyridyl]phenyl]thiazol-2-yl]amino]-2-oxo-ethyl]-4,5-dimethyl-1-methylsulfonyl-pyrrole-3-carboxamide] | > 10000 nM | C (‘C’ = Maximum degradation <50%) | > 10000 nM | < 50%
4 | Cc1ncsc1-c1ccc(CNC(=O)[C@@H]2C[C@@H](O)CN2C(=O)[C@@H](NC(=O)COCCOCC(=O)NCc2cccc(-c3cccc(-c4csc(NC(=O)CNC(=O)c5ccn(S(C)(=O)=O)c5)n4)c3)c2)C(C)(C)C)cc1 [Compound 44, N-(2-((4-(3′-((S)-12-((2S,4R)-4-hydroxy-2-((4-(4-methylthiazol-5-yl)benzyl)carbamoyl)pyrrolidine-1-carbonyl)-13,13-dimethyl-3,10-dioxo-5,8-dioxa-2,11-diazatetradecyl)-[1,1′-biphenyl]-3-yl)thiazol-2-yl)amino)-2-oxoethyl)-1-(methylsulfonyl)-1H-pyrrole-3-carboxamide] | 1000 to 10000 nM | B (‘B’ = Maximum degradation ≥50% and ≤75%) | 1000 to 10000 nM | > 75%
5 | Cc1ncsc1-c1ccc(CNC(=O)[C@@H]2C[C@@H](O)CN2C(=O)[C@@H](NC(=O)CCCCCCCCCNC(=O)CN(C)c2cc(-c3cccc(-c4csc(NC(=O)CNC(=O)c5ccn(S(C)(=O)=O)c5)n4)c3)ccn2)C(C)(C)C)cc1 [Compound 47] | < 100 nM | B (‘B’ = Maximum degradation ≥50% and ≤75%) | < 100 nM | 50 to 75%
6 | Cc1ncsc1-c1ccc(CNC(=O)[C@@H]2C[C@@H](O)CN2C(=O)[C@@H](NC(=O)CCCCCCC(=O)NCc2cccc(-c3cccc(-c4csc(NC(=O)CNC(=O)c5ccn(S(C)(=O)=O)c5)n4)c3)c2)C(C)(C)C)cc1 [Compound 50, N1-((S)-1-((2S,4R)-4-hydroxy-2-((4-(4-methylthiazol-5-yl)benzyl)carbamoyl)pyrrolidin-1-yl)-3,3-dimethyl-1-oxobutan-2-yl)-N8-((3′-(2-(2-(1-(methylsulfonyl)-1H-pyrrole-3-carboxamido)acetamido)thiazol-4-yl)-[1,1′-biphenyl]-3-yl)methyl)octanediamide] | 100 to 1000 nM | A (‘A’ = Maximum degradation >75%) | 100 to 1000 nM | > 75%
7 | CS(=O)(=O)n1ccc(C(=O)NCC(=O)Nc2nc(-c3cccc(-c4cccc(CNC(=O)CCCCCCCCCCNc5cccc6c5C(=O)N(C5CCC(=O)NC5=O)C6=O)c4)c3)cs2)c1 (centres unmarked) [Compound 51, N-[2-[[4-[3-[3-[[11-[[2-(2,6-dioxo-3-piperidyl)-1,3-dioxo-isoindolin-4-yl]amino]undecanoylamino]methyl]-phenyl]phenyl]thiazol-2-yl]amino]-2-oxo-ethyl]-1-methylsulfonyl-pyrrole-3-carboxamide] | > 10000 nM | C (‘C’ = Maximum degradation <50%) | 100 to 1000 nM | 50 to 75%
8 | CS(=O)(=O)n1ccc(C(=O)NCC(=O)Nc2nc(-c3cccc(-c4cccc(CNC(=O)CCCCCCCCCCNc5ccc6c(c5)C(=O)N(C5CCC(=O)NC5=O)C6=O)c4)c3)cs2)c1 (centres unmarked) [Compound 52] | > 10000 nM | C (‘C’ = Maximum degradation <50%) | 100 to 1000 nM | 50 to 75%

Continued, values first:

Row | DC50 [1] | BRM HiBit Degradation Maximum measured [1] | DC50 [2] | Dmax [2] | Structure (SMILES)
9 | > 10000 nM | C (‘C’ = Maximum degradation <50%) | > 10000 nM | < 50% | CS(=O)(=O)n1ccc(C(=O)NCC(=O)Nc2nc(-c3cccc(-c4ccnc(N5CCN(C(=O)C6CC6CNC(=O)COc6ccc7c(c6)C(=O)N(C6CCC(=O)NC6=O)C7=O)CC5)c4)c3)cs2)c1 (centres unmarked) [Compound 39, N-[2-[[4-[3-[2-[4-[2-[[[2-[2-(2,6-dioxo-3-piperidyl)-1,3-dioxo-isoindolin-5-yl]oxyacetyl]amino]methyl]cyclopropanecarbonyl]piperazin-1-yl]-4-pyridyl]phenyl]thiazol-2-yl]amino]-2-oxo-ethyl]-1-methylsulfonyl-pyrrole-3-carboxamide]
10 | > 10000 nM | C (‘C’ = Maximum degradation <50%) | 100 to 1000 nM | 50 to 75% | CS(=O)(=O)n1ccc(C(=O)NCC(=O)Nc2nc(-c3cccc(-c4cccc(CNC(=O)CCOCCOCCNc5cccc6c5C(=O)N(C5CCC(=O)NC5=O)C6=O)c4)c3)cs2)c1 (centres unmarked) [Compound 42, N-(2-((4-(3′-((3-(2-(2-((2-(2,6-dioxopiperidin-3-yl)-1,3-dioxoisoindolin-4-yl)amino)ethoxy)ethoxy)propanamido)-methyl)-[1,1′-biphenyl]-3-yl)thiazol-2-yl)amino)-2-oxoethyl)-1-(methylsulfonyl)-1H-pyrrole-3-carboxamide]
11 | > 10000 nM | C (‘C’ = Maximum degradation <50%) | 100 to 1000 nM | 50 to 75% | CS(=O)(=O)n1ccc(C(=O)NCC(=O)Nc2nc(-c3cccc(-c4cccc(CNC(=O)CCCCCCOc5cccc6c5C(=O)N(C5CCC(=O)NC5=O)C6=O)c4)c3)cs2)c1 (centres unmarked) [Compound 43, N-(2-((4-(3′-((7-((2-(2,6-dioxopiperidin-3-yl)-1,3-dioxoisoindolin-4-yl)oxy)heptanamido)methyl)-[1,1′-biphenyl]-3-yl)thiazol-2-yl)amino)-2-oxoethyl)-1-(methylsulfonyl)-1H-pyrrole-3-carboxamide]
12 | > 10000 nM | C (‘C’ = Maximum degradation <50%) | > 10000 nM | < 50% | CS(=O)(=O)n1ccc(C(=O)NCC(=O)Nc2nc(-c3cccc(-c4cccc(CNC(=O)CCOCCOCCNc5ccc6c(c5)C(=O)N(C5CCC(=O)NC5=O)C6=O)c4)c3)cs2)c1 (centres unmarked) [Compound 45, N-(2-((4-(3′-((3-(2-(2-((2-(2,6-dioxopiperidin-3-yl)-1,3-dioxoisoindolin-5-yl)amino)ethoxy)ethoxy)propanamido)-methyl)-[1,1′-biphenyl]-3-yl)thiazol-2-yl)amino)-2-oxoethyl)-1-(methylsulfonyl)-1H-pyrrole-3-carboxamide]
13 | > 10000 nM | C (‘C’ = Maximum degradation <50%) | 1000 to 10000 nM | 50 to 75% | Cc1ncsc1-c1ccc(CNC(=O)[C@@H]2C[C@@H](O)CN2C(=O)[C@@H](NC(=O)CCCCC(=O)NCc2cccc(-c3cccc(-c4csc(NC(=O)CNC(=O)c5ccn(S(C)(=O)=O)c5)n4)c3)c2)C(C)(C)C)cc1 [Compound 48, N1-((S)-1-((2S,4R)-4-hydroxy-2-((4-(4-methylthiazol-5-yl)benzyl)carbamoyl)pyrrolidin-1-yl)-3,3-dimethyl-1-oxobutan-2-yl)-N6-((3′-(2-(2-(1-(methylsulfonyl)-1H-pyrrole-3-carboxamido)acetamido)thiazol-4-yl)-[1,1′-biphenyl]-3-yl)methyl)adipamide]
14 | < 100 nM | A (‘A’ = Maximum degradation >75%) | < 100 nM | > 75% | Cc1ncsc1-c1ccc(CNC(=O)[C@@H]2C[C@@H](O)CN2C(=O)[C@@H](NC(=O)CCCCCCCC(=O)NCc2cccc(-c3cccc(-c4csc(NC(=O)CNC(=O)c5ccn(S(C)(=O)=O)c5)n4)c3)c2)C(C)(C)C)cc1 [Compound 49, N1-((S)-1-((2S,4R)-4-hydroxy-2-((4-(4-methylthiazol-5-yl)benzyl)carbamoyl)pyrrolidin-1-yl)-3,3-dimethyl-1-oxobutan-2-yl)-N9-((3′-(2-(2-(1-(methylsulfonyl)-1H-pyrrole-3-carboxamido)acetamido)thiazol-4-yl)-[1,1′-biphenyl]-3-yl)methyl)nonanediamide]
